Test results: patent US20020160055A1, “Methods for treating human immunodeficiency virus infections with gallium compositions” (priority 2000, published 2002)

Assays:
HIV = details: results of U.S. Pat. No. 5,525,598; cited from earlier work
PBMC = experiment: Effects on PBMC proliferation and viability (Trypan blue staining and counting); format: cell-based, human; details: 48 hrs
Experimental: FIG. 4—Effects of Gallium Nitrate on PBMC Proliferation and Viability. Experiments were carried out in duplicate, and experiments repeated a minimum of three times. Gallium nitrate (Ga) was obtained from the National Cancer Institute. Cells were incubated in Ga at concentrations noted, and were stained at 48 hrs with Trypan blue and counted.
(§1) Various concentrations of Ga or HU were added to PHA/IL2 stimulated PBMC's 24 hours prior to infection with HIV. Following infection, cells were washed and culture supernatants were obtained 4 and 7 days post-infection.

HIV-1 = experiment: Inhibition of HIV replication in PHA/IL2 stimulated PBMC's (p24 antigen in culture supernatants); format: cell-based
Experimental: FIG. 1—Gallium Nitrate and Hydroxyurea Inhibition of HIV-1 Replication. PHA/IL-2 stimulated human PBMC's (1×10^6), and MT-2 cells (1×10^6) were grown and maintained in RPMI 1640 media containing 20% fetal calf sera, glutamine and antibiotics (Thelander & Reichard, 1979). Experiments were carried out in duplicate, and experiments repeated a minimum of three times. Gallium nitrate (Ga) was obtained from the National Cancer Institute. Hydroxyurea (HU) was obtained from Sigma Chemicals (St. Louis, Mo.). Ga and HU were added to PBMC's 24 hrs prior to infection, and cells were washed 16 hrs post-infection. Culture supernatants were obtained 4 and 7 days post-infection for p24 antigen measurement.
as §1
HIV (Catalog# 1073, NIH AIDS Reference Program) was used in these studies. […] Viral replication was measured by determining the concentration of p24 antigen in culture supernatants (Organon-Teknika), and by visually observing a reduction in syncytia formation (Cook et al., 1997). In addition, a quantitative measurement of syncytia induction—inhibition was employed (described below). […]

For Cc1cn([C@H]2C[C@H](N=[N+]=[N-])[C@@H](CO)O2)c(=O)[nH]c1=O [3′-azido-2,3′-deoxythymidine], the therapeutic index (HIV) is listed as 3680.
For O=[N+]([O-])[O-].O=[N+]([O-])[O-].O=[N+]([O-])[O-].[Ga+3] [Ga, Gallium nitrate], the “effect on cellular proliferation or viability at concentrations inhibiting HIV replication” value (PBMC) was “did not inhibit cellular proliferation or viability” and the “fold lower IC50 of Ga than HU” value (HIV-1; present culture system) was “approximately 15 fold”.
Molecule NC(=O)NO [HU, Hydroxyurea] has an IC50 (HIV-1; Human immunodeficiency virus 1, PHA/IL2 stimulated PBMC's, added 24 hours prior to infection, supernatants 4 and 7 days post-infection) of 120 µM.
